Data on 7 molecules can be found in ChEMBL document CHEMBL1149669, “Sulfonamide derivatives as new potent and selective CB2 cannabinoid receptor agonists” (Bioorg Med Chem Lett, 2007).

The IC50 is the point on the concentration scale where inhibition reaches its midpoint. High values mean a need for much substance, low ones inhibition by little substance. One may read the Emax as the greatest response seen or fitted, relative to the assay's reference. What is called EC50 is the concentration needed to bring the measured effect to its halfway point. Higher therefore signals weaker potency.

Structures are written as SMILES.

Assay [1] concerns the target T1, Cannabinoid receptor 2 (Homo sapiens, UniProt P34972). Put plainly: Displacement of [3H]CP-55940 from human CB2 receptor expressed in CHO cells. Type of assay: cell-based.
Assay [2] has as its target T1, Cannabinoid receptor 2. The experiment in a line: Agonist activity at human CB2 receptor expressed in CHO cells by [35S]GTP-gamma-S binding assay relative to CP-55940. Type of assay: functional, cell-based.
In assay [3] the target is T1, Cannabinoid receptor 2. The experiment in a line: Agonist activity at human CB2 receptor expressed in CHO cells by [35S]GTP-gamma-S binding assay. In kind it is functional, cell-based.
The target of another assay is Cannabinoid receptor 1 (Homo sapiens, UniProt P21554). The experiment in a line: Displacement of [3H]CP-55940 from human CB1 receptor expressed in CHO cells. Type of assay: cell-based.
For another assay, the species on record is Homo sapiens. Put plainly: Selectivity for human CB2 receptor over human CB1 receptor.

T1 sequence (P34972 whole entry): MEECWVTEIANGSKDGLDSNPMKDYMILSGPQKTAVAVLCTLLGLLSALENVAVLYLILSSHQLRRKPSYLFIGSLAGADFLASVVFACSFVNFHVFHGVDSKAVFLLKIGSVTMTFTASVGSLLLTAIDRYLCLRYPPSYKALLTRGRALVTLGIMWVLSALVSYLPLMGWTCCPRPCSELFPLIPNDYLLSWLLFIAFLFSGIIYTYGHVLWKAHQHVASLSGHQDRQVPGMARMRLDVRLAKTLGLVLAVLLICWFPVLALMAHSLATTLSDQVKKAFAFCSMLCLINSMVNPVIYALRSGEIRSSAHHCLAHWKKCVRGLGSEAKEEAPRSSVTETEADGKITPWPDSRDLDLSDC
Sequence of Cannabinoid receptor 1 (P21554 whole entry): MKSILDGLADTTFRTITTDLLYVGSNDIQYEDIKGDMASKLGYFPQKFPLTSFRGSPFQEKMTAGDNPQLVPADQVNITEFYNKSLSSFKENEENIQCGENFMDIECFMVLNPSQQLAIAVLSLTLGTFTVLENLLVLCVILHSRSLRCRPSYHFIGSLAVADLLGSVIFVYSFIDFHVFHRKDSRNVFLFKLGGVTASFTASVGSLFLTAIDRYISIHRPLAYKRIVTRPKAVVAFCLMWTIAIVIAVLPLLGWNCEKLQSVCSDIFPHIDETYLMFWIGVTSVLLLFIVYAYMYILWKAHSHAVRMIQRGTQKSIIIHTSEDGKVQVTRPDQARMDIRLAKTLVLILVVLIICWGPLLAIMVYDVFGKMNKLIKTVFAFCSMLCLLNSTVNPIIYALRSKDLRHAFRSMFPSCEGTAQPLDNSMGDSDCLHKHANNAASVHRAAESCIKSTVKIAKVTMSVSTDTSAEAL

In turn, `CC(C)=CCn1c(C)c(C(C)(C)C)s/c1=N\S(=O)(=O)c1ccccc1` returned an IC50 on Cannabinoid receptor 2 [1] of 170 nM.
Still for that read-out and setting: as for `C#CCn1c(C)c(C(C)(C)C)s/c1=N\S(=O)(=O)c1ccccc1`, the figure is 210 nM.
`Cc1c(C(C)(C)C)s/c(=N\S(=O)(=O)c2ccccc2)n1C` came in with an Emax at Cannabinoid receptor 2 [2] of 110%. For the same molecule, at Cannabinoid receptor 2 [3], a half-maximal effect (EC50) was put at 110 nM. Moreover, the IC50 on Cannabinoid receptor 1 was greater than 50000 nM; at Cannabinoid receptor 2 [1], 340 nM.
On to `Cc1c(C(C)(C)C)s/c(=N\S(=O)(=O)c2ccccc2)n1CC1CC1`, for which the IC50 at Cannabinoid receptor 2 [1] is 65 nM.
Still for that read-out and setting: as for `C=CCn1c(C)c(C(C)(C)C)s/c1=N\S(=O)(=O)c1ccccc1`, the figure is 75 nM.
`Cc1c(C(C)(C)C)s/c(=N\S(=O)(=O)c2cccc3ccccc23)n1CC1CC1` registered an Emax at Cannabinoid receptor 2 [2] of 100%. This molecule displayed an EC50 on Cannabinoid receptor 2 [3] of 7.2 nM. Further, the results for the IC50 at Cannabinoid receptor 1 and on Cannabinoid receptor 2 [1] were 1700 nM and 16 nM, respectively. Moreover, the Ratio IC50 in the assay filed under Homo sapiens came to 106.
As to `Cc1c(C(C)(C)C)s/c(=N\S(=O)(=O)c2ccc3ccccc3c2)n1CC1CC1`, the IC50 at Cannabinoid receptor 2 [1] amounted to 490 nM. This lies in the sub-micromolar range.
